From the supplement of paper PMC9663587

Tests used:
Cediranib/AZD2171 = compound: COc1cc2c(Oc3ccc4[nH]c(C)cc4c3F)ncnc2cc1OCCCN1CCCC1 [Cediranib/AZD2171]
[1] = compound: CC(=O)Nc1cccc(-n2c(=O)n(C3CC3)c(=O)c3c(Nc4ccc(I)cc4F)n(C)c(=O)c(C)c32)c1
Alpelisib/BYL719 = compound: Cc1nc(NC(=O)N2CCC[C@H]2C(N)=O)sc1-c1ccnc(C(C)(C)C(F)(F)F)c1 [Alpelisib/BYL719]
Saracatinib/AZD0530 = compound: CN1CCN(CCOc2cc(OC3CCOCC3)c3c(Nc4c(Cl)ccc5c4OCO5)ncnc3c2)CC1 [Saracatinib/AZD0530]
[2] = compound: CCc1cnn2c(NCc3ccc[n+]([O-])c3)cc(N3CCCC[C@H]3CCO)nc12; experiment: increase in dead-cell fraction, 72 h; higher = more death;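 note: breast cancer cell lines in 384-well plates, stained with Hoechst plus LIVE/DEAD far red dye and imaged, cells above an LDR intensity threshold counted dead, Hoechst-negative corpses included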
Neratinib/HKI272 = compound: CCOc1cc2ncc(C#N)c(Nc3ccc(OCc4ccccn4)c(Cl)c3)c2cc1NC(=O)/C=C/CN(C)C [Neratinib/HKI272]; experiment: as above
[3] = compound: CC(=O)c1c(C)c2cnc(Nc3ccc(N4CCNCC4)cn3)nc2n(C2CCCC2)c1=O; experiment: as above
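Throughout, for GR50, 72 h: breast cancer and non-malignant breast epithelial cell lines, Deep Dye Drop or Dye Drop imaging, nine half-log doses, GR normalized to time-zero plates and DMSO-only controls.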

Row | Cell Line | GR50, 72 h (Cediranib/AZD2171) | GR50, 72 h [1] | GR50, 72 h (Alpelisib/BYL719) | GR50, 72 h (Saracatinib/AZD0530) | increase in dead-cell fraction ([2]; 0.0001 µM) | increase in dead-cell fraction ([2]; 0.0003162 µM) | increase in dead-cell fraction ([2]; 0.001 µM) | increase in dead-cell fraction ([2]; 0.003162 µM) | increase in dead-cell fraction ([2]; 0.01 µM) | increase in dead-cell fraction ([2]; 0.03162 µM) | increase in dead-cell fraction ([2]; 0.1 µM) | increase in dead-cell fraction ([2]; 0.3162 µM) | increase in dead-cell fraction ([2]; 1 µM) | increase in dead-cell fraction (Neratinib/HKI272; 0.0003162 µM) | increase in dead-cell fraction (Neratinib/HKI272; 0.001 µM) | increase in dead-cell fraction (Neratinib/HKI272; 0.003162 µM) | increase in dead-cell fraction (Neratinib/HKI272; 0.01 µM) | increase in dead-cell fraction (Neratinib/HKI272; 0.03162 µM) | increase in dead-cell fraction (Neratinib/HKI272; 0.1 µM) | increase in dead-cell fraction (Neratinib/HKI272; 0.3162 µM) | increase in dead-cell fraction (Neratinib/HKI272; 1 µM) | increase in dead-cell fraction (Neratinib/HKI272; 3.162 µM) | increase in dead-cell fraction ([3]; 0.0003162 µM) | increase in dead-cell fraction ([3]; 0.001 µM) | increase in dead-cell fraction ([3]; 0.003162 µM) | increase in dead-cell fraction ([3]; 0.01 µM) | increase in dead-cell fraction ([3]; 0.03162 µM) | increase in dead-cell fraction ([3]; 0.1 µM) | increase in dead-cell fraction ([3]; 0.3162 µM) | increase in dead-cell fraction ([3]; 1 µM) | increase in dead-cell fraction ([3]; 3.162 µM)
1 | HCC1428 | 3.17 µM | > 1 µM | > 10 µM | > 10 µM | 0.0044 | 0.0006 | 0.0016 | -0.0135 | 0.0043 | 0.283 | 0.562 | 0.64 | 0.687 | 0.0076 | 0.0073 | 0.0021 | -0.0004 | 0.0008 | 0.0018 | 0.0002 | 0.0203 | 0.217 | 0.005 | -0.0004 | -0.0052 | 0.0068 | 0.0017 | 0.0007 | 0.0117 | 0.0083 | 0.0097
2 | HCC1500 | 3.86 µM | 0.142 µM | > 10 µM | 0.259 µM | 0.0119 | -0.0049 | 0.0055 | 0.0001 | 0.0467 | 0.285 | 0.499 | 0.456 | 0.476 | 0.0116 | -0.0067 | 0.017 | -0.0012 | 0.0316 | 0.0224 | 0.0504 | 0.0834 | 0.331 | -0.0019 | 0.0086 | -0.0112 | 0.0091 | 0.0038 | 0.019 | 0.0086 | 0.009 | 0.0027
